Experimental findings from article PMC4027214 (2014) are described below.

In assay [1] the test system is TFF1-ERE (DNA, duplex) AGGTCACGGTGGCCA/TGGCCACCGTGACCT
The experiment in a line: NMR titration and solution structure. The note with it: 50 mM sodium phosphate (Na+); pH 7, 25 °C; bis-intercalation, each drug one strong and one weak intercalation site.

Assay [2] has the same test system. Put plainly: fluorescent intercalator displacement (FID). The note with it: 5 mM sodium phosphate (Na+); pH 7, 25 °C; ethidium bromide displaced; DNA 16.7 μM; fit assumes KD1 = KD2; apparent.

`Cc1cccc2nc3cccc(C(=O)NCCNCCNCCNC(=O)c4cccc5nc6cccc(C)c6nc45)c3nc12`: the binding result in assay [1] is reported as “yes”. Moreover, in assay [2], the KD is ~ 9.65 × 10^−7 M.
